Measurements taken from PMC10916352, “Safety Evaluation of a Prototypical Diazirine-Based Covalent Crosslinker and Molecular Adhesive” (International Journal of Toxicology, 2023).
Values joined by “and” are separate entries in the source; they are usually repeats but may differ in a detail not shown here. Identical values can stand only once.

Test system: isolated bovine cornea
Experiment: Bovine Corneal Opacity and Permeability test (BCOP)
Set-up: key to Mean Opacity Change: mean of final − initial opacity; opacity = (I0/I − 0.9894)/0.0251
Experimental: The BCOP Assay was performed to evaluate the eye hazard potential of BondLynx, as measured by its ability to induce opacity and increase permeability in an isolated bovine cornea. The BCOP is an in vitro model that provides short-term maintenance of normal physiological and biological function of the bovine cornea in an isolated system so that eye damage can be assessed by quantitative measurements of changes in corneal opacity and permeability.[45],[46]
Tests were performed using bovine corneas isolated from the eyes of young cattle after slaughter and transported in biological saline under cooled conditions. […] BondLynx was ground with a mortar and pestle and applied directly to the corneas as a solid. Tests were performed in triplicate.
Bovine eyes were checked for unacceptable defects, such as opacity, scratches, pigmentation, and neovascularization upon receipt by removing them from the physiological saline and holding them in the light. Corneas were isolated from acceptable specimens and stored in a petri dish with cMEM (Eagle’s Minimum Essential Medium with 1% v/v L-glutamine and 1% v/v foetal bovine serum) at 32 ± 1°C. Isolated corneas were mounted in a corneal holder with the endothelial side against the O-ring of the posterior half of the holder and the anterior half of the holder tightened on top of the cornea with screws. The compartments of the corneal holder were filled with cMEM and the corneas were incubated for a minimum of 1 h at 32 ± 1°C. The initial corneal opacity was determined by replacing the medium in both compartments with fresh cMEM and using an opacitometer to measure the opacity against a cMEM filled chamber. Only corneas with an initial opacity <7 were used for testing.
A total of three samples were prepared for each test item by removing the medium from the anterior compartment of the holder and applying 750 μL of positive or negative control, or 306.6-333.6 mg of BondLynx. The corneal holders were positioned so that the test item uniformly covered the cornea within, and the entire assembly was incubated at 32 ± 1°C for 240 ± 10 min. The test item was then removed, and the epithelium was washed at least three times with MEM containing phenol red. Corneas were visually inspected for pH effects and dissimilar opacity patterns before refilling both compartments with fresh cMEM.
Corneal opacity was measured by the diminution of light (I = luminous flux per area) passing through the cornea. The opacity value was calculated according to the formula: Opacity=I0/I−0.9894/0.0251 where I0 is the empirically determined illuminance through a cornea holder with just windows and medium and I is the measured illuminance through a holder with a cornea. The change in opacity for each individual cornea was calculated by subtracting the initial opacity from the final post-treatment reading, and the corrected opacity was calculated by subtracting the average change in opacity of the negative control corneas (if > 0) from the change in opacity for corneas treated with BondLynx or positive control.
Following the final opacity measurement, permeability of the cornea to Na-fluorescein was evaluated by removing the medium from both corneal holder compartments, then refilling the posterior compartment with fresh cMEM and the anterior compartment with 1 mL of Na-fluorescein in cMEM (5 mg/mL). The corneal holders were positioned so that the test item uniformly covered the cornea within, and the entire assembly was incubated at 32 ± 1°C for 90 ± 5 min. The medium from the posterior compartment was then removed, and a 360 μL aliquot was placed in a 96-well plate to measure the OD490 in triplicate. Any sample with an OD490 that was 1.500 or higher was diluted to bring the OD490 into the acceptable range. The corrected OD490 was calculated by subtracting the average change in OD490 for the negative control (if > 0) from the change in OD490 of either BondLynx or positive control treated cornea.

FC(F)(F)C1(c2ccc(C(c3ccc(C4(C(F)(F)F)N=N4)cc3)(C(F)(F)F)C(F)(F)F)cc2)N=N1 [BondLynx, 2,2-bis-[4-[3-(trifluoromethyl)-3H-diazirin-3-yl]phenyl]hexafluoropropane]
Opacity (240 min exposure, individual corneas): 0.9 and 0.7 | Appearance of corneas after treatment (240 min of treatment): clear | UN GHS eye damage classification (IVIS <3: No Category): does not require classification for eye damage or irritation | pH effects in the rinsing medium (after 240 min exposure): No pH effects | Corrected Opacity Change (individual corneas): 1.6 and 0.9 and 0.7 | Final Opacity (individual corneas, after 240 min treatment): 1.9 and 0.9 and 2.5 | Initial Opacity (individual corneas, before treatment): 0.3 and 0 and 1.8 | Opacity Change (individual corneas, final minus initial): 1.6 and 0.9 and 0.7 | IVIS (individual corneas, opacity + 15 × OD490): 0.9 and 1.0 | Mean IVIS ± SD (three corneas): 1.2 ± 0.4 | Mean Opacity Change (three corneas): 1.1
